Like-named read-outs stand apart in the source and are kept apart here. Numbered stars: 1 amine (or outer) side, 2 acyl side, 3 side chain; on linkers, the order of the positions; unused ones are H or OH. Side chains are listed from the residue outwards. Peptide text beside a SMILES is read from it. * marks the point of attachment. γGlu = O=C(O)[C@H](CCC(=O)[*:2])N[*:1]; Palmitoyl = CCCCCCCCCCCCCCCC(=O)* Some results are limits rather than exact numbers.

One data set addresses T1, Human GIPr (Homo sapiens, UniProt P48546).
T1 construct: expressed in transfected cells
T1 sequence (P48546 22-466): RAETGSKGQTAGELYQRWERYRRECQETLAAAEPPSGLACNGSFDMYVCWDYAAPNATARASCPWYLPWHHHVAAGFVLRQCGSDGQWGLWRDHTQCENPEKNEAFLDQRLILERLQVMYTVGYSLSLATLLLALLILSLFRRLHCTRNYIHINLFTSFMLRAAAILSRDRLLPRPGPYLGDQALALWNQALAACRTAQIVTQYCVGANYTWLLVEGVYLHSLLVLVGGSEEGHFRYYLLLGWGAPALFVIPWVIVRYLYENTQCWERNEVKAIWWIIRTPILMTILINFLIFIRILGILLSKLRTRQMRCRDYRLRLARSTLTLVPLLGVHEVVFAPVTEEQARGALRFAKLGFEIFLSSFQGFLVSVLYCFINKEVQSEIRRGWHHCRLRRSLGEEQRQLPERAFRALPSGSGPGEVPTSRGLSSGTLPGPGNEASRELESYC
In words: cAMP activity assay 1 in assay medium, human GIP receptor. The class given is cell-based. Conditions: additional peptides (Table 4).

A further data set deals with Human GLP1R (Homo sapiens, UniProt P43220). The settings on record: read-out: hGLP1R EC50; assay 1; additional peptides (Table 4).
Human GLP1R, sequence (P43220 24-463): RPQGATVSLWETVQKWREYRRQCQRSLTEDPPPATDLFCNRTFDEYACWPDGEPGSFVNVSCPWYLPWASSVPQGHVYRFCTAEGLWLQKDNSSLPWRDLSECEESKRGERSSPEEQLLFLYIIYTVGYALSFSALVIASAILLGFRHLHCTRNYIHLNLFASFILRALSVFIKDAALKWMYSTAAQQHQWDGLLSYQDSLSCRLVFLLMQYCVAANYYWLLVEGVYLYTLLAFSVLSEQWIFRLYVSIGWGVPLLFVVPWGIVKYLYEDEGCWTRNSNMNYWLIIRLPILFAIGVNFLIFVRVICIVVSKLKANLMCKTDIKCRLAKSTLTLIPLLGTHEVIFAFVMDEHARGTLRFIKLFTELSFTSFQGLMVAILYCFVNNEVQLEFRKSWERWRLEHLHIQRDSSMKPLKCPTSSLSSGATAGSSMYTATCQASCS
Data set [1] concerns the target T2, Human GlucR (Homo sapiens, UniProt P47871). Conditions: read-out: hGlucR EC50; assay 1; additional peptides (Table 4).
Description: (§1) All sample dilutions were made in duplicate.
(§2) A frozen cryo-vial of cells expressing the receptor of interest was thawed rapidly in a water-bath, transferred to pre-warmed assay media and spun at 240×g for 5 minutes. Cells were re-suspended in assay media at an optimised concentration (e.g. hGCGR cells at 1×10^5 cells/ml, hGLP-1R and hGIPR cells at 0.5×10^5 cells/ml).
(§3) To this, 5 μL cell suspension was added and the plates incubated at room temperature for 30 minutes.
(§4) cAMP levels were measured using a commercially available cAMP dynamic 2 HTRF kit (Cisbio, Cat #62AM4PEJ), following the two step protocol as per manufacturer's recommendations. In brief; anti-cAMP cryptate (donor fluorophore) and cAMP-d2 (acceptor fluorophore) were made up separately by diluting each 1/20 in conjugate & lysis buffer provided in the kit. 5 μL anti-cAMP cryptate was added to all wells of the assay plate, and 5 μL cAMP-d2 added to all wells except non-specific binding (NSB) wells, to which conjugate and lysis buffer was added.
For a further data set, the system named is DIO mice. Description: Diet induced obesity (DIO) mouse model, study B. It counts as in vivo. The settings on record: for BW day 14 (% change of vehicle mean) / HOMA / Hepatic TG (g TG/100g tissue) / Plasma NEFA / Plasma TG: day 14; for Glucose / Insulin: day 14, 4-hour fasting. The method, then: The body weight of the animals was monitored daily throughout the dosing period At day 14, blood samples for the measurement of plasma glucose and insulin from conscious mice were obtained after a 4-hour fasting period. Mice were then anaesthetized using isofluorane and terminal blood was collected from the capillary bed behind the eye. The following parameters were measured: blood chemistry measurements of triglycerides, total cholesterol, non-esterified fatty acids (NEFA), beta-hydroxybutyrate and fibroblast growth factor 21 (FGF21) (Table 16 and Table 17 below).

Data set [2] can be described thus: Stability testing of peptides in human plasma. It counts as in vitro ADME. As to the method:
Stability testing of peptides in plasma. The stability in plasma of the peptides […], […], […] and […] was determined as follows. […] The frozen blank plasma from human, rat and mouse had been thawed and heated to a temperature of 37° C. before addition of the stock solution. The spiked plasma samples were gently mixed and allowed to equilibrate for about 5 minutes before start of experiment. The plasma samples were incubated for 48 hours in a Galaxy® CO2 incubator at 37° C. […] The samples were stored at -70° C. until analysis. Plasma samples were assayed as follows. The 30 μL plasma samples were protein precipitated with […] of cold ethanol in a 96-well low bind plate (Eppendorf Protein LoBind). After mixing and centrifugation 100 μl the supernatant was transferred to a new plate and 1 μl was injected onto an analytical column. The analysis was performed using a μLC-system ([…]) coupled to a medium high resolution mass spectrometer (Perkin Elmer PenTOF) with positive electrospray ionisation. […] Flow: 0.1 ml/min using a slow reversed phase gradient. […] Products with +1 mass may arise from deamidation at amide groups of glutamine or at the C-terminus. Cleavage products arise from the action of the protease DPP IV in plasma. Both the degradation of the peptides and formation of peptide products were reported in percentage of the initial peptide concentration. Peaks were integrated and % remaining peptide was calculated: […] Levels of deamidation and DPP IV cleavage were low for […] and […].

The target of the next data set is human serum albumin (Homo sapiens, UniProt P02768). In words: Fraction of free peptide at plasma concentration of albumin, calculated from variation in cAMP generation with HSA concentration. The class given is in vitro ADME. Set-up: purchased Sigma Aldrich.
human serum albumin, sequence (P02768 25-609): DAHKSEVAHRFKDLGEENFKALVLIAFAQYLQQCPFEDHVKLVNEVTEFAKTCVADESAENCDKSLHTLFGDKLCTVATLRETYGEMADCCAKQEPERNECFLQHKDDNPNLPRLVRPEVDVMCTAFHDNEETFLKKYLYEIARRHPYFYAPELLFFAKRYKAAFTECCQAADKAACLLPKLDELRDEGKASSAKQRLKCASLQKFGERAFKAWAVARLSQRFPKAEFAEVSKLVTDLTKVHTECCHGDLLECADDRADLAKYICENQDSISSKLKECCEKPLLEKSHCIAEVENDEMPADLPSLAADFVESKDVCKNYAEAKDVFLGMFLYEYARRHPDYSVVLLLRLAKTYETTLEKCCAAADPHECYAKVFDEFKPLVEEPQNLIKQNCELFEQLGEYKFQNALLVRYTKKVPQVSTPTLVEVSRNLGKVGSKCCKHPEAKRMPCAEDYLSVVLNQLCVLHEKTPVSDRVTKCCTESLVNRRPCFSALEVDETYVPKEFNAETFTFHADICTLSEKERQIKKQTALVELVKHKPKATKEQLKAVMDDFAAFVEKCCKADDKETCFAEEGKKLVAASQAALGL
In another data set the target is Mouse GlucR (Mus musculus, UniProt Q61606). In words: cAMP assay 2 in […] mouse serum albumin, mouse GlucR. The settings on record: assay 2, […] Mouse Serum Albumin; relative potencies vs natural ligands.
Mouse GlucR, sequence (Q61606 27-485): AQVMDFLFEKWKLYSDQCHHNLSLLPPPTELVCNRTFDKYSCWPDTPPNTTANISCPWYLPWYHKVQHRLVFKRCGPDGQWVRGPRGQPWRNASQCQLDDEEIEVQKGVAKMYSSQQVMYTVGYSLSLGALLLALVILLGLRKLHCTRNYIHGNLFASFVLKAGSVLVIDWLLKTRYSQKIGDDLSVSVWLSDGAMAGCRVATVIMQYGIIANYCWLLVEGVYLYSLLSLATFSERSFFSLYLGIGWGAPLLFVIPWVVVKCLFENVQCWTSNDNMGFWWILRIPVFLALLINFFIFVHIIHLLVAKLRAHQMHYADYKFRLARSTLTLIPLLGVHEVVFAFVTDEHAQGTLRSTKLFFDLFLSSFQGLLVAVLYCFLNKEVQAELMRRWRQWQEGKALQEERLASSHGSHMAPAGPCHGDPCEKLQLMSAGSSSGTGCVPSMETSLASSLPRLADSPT
Data set [3] addresses T2, Human GlucR. Description: cAMP assay 2 in 4.4% human serum albumin, human GlucR. The settings on record: assay 2, 4.4% Human Serum Albumin; relative potency GlucR (vs glucagon)/relative potency GLP1R (vs GLP1). Background: Cyclic AMP is a second messenger, typically raised through Gs and lowered through Gi signalling.

T2 sequence (P47871 26-477): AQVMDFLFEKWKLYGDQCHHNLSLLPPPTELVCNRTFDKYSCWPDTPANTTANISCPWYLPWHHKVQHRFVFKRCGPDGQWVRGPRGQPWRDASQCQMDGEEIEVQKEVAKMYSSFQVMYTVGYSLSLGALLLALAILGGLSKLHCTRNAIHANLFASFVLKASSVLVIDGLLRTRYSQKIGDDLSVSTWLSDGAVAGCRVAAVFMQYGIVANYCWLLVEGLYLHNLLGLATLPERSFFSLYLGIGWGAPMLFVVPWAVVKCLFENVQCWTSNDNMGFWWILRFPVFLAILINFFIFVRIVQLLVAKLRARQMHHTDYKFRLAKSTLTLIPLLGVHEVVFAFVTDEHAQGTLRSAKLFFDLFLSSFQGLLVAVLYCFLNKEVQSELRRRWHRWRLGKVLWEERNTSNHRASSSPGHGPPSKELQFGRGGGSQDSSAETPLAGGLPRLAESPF
Description for Human GIPr: as §1, §2, §3, §4
Description for Human GLP1R: as §1, §2, §3, §4
Description for physchem: Peptide solubility was assessed in three different isotonic formulations: • 1. […] Final formulation pH=7.2 • 2. Back up formulation 1 (BF1)=0.05M Tris, 50 mM Arginine/Proline. Final formulation pH=8.0 • 3. […] Final formulation pH=7.0

For the compound `CCCCCCCCCCCCCCCC(=O)N[C@@H](CCC(=O)NCCCC[C@H](NC(=O)[C@H](CO)NC(=O)[C@H](CC(=O)O)NC(=O)[C@H](CC(C)C)NC(=O)[C@H](Cc1ccc(O)cc1)NC(=O)[C@H](CCCCN)NC(=O)[C@H](CO)NC(=O)[C@H](Cc1ccc(O)cc1)NC(=O)[C@H](CC(=O)O)NC(=O)[C@H](CO)NC(=O)[C@@H](NC(=O)[C@H](Cc1ccccc1)NC(=O)[C@@H](NC(=O)CNC(=O)[C@H](CCC(N)=O)NC(=O)[C@H](CO)NC(=O)[C@@H](N)Cc1c[nH]cn1)[C@@H](C)O)[C@@H](C)O)C(=O)N[C@@H](CCCNC(=N)N)C(=O)N[C@@H](C)C(=O)N[C@@H](CCC(=O)O)C(=O)N[C@@H](CC(=O)O)C(=O)N[C@@H](Cc1ccccc1)C(=O)N[C@H](C(=O)N[C@@H](CCC(N)=O)C(=O)N[C@@H](Cc1c[nH]c2ccccc12)C(=O)N[C@@H](CC(C)C)C(=O)N[C@H](C(=O)N[C@@H](C)C(=O)NCC(=O)NCC(N)=O)C(C)C)C(C)C)C(=O)O` [g599], the concentration for a half-maximal effect (EC50) (commonly the concentration at which the effect is half-maximal) at Human GIPr (g688, read-out: hGIPR EC50) came to 112 nM.

On to “Listed in the section of parent HSQGTFTSDYSKYLDSRRAQDFVQWLEAGG; no modification printed [g536]”, for which the half-maximal effective concentration (EC50) at Human GLP1R is 0.0745 nM.

As for `CCCCCCCCCCCCCCCC(=O)N[C@@H](CCC(=O)NCCCC[C@H](NC(=O)[C@H](Cc1ccc(O)cc1)NC(=O)[C@H](CCCNC(=N)N)NC(=O)[C@H](CO)NC(=O)[C@H](Cc1ccc(O)cc1)NC(=O)[C@H](CC(=O)O)NC(=O)[C@H](CO)NC(=O)[C@@H](NC(=O)[C@H](Cc1ccccc1)NC(=O)[C@@H](NC(=O)CNC(=O)[C@H](CCC(N)=O)NC(=O)[C@H](CO)NC(=O)[C@@H](N)Cc1c[nH]cn1)[C@@H](C)O)[C@@H](C)O)C(=O)N[C@@H](CC(=O)O)C(=O)N[C@@H](CO)C(=O)N[C@@H](CCCNC(=N)N)C(=O)N[C@@H](CO)C(=O)N[C@@H](C)C(=O)N[C@@H](CCCNC(=N)N)C(=O)N[C@@H](CC(=O)O)C(=O)N[C@@H](Cc1ccccc1)C(=O)N[C@H](C(=O)N[C@@H](C)C(=O)N[C@@H](Cc1c[nH]c2ccccc12)C(=O)N[C@@H](CC(C)C)C(=O)N[C@@H](CCC(=O)O)C(=O)N[C@@H](C)C(N)=O)C(C)C)C(=O)O` [g850] (H-HSQGTFTSDYSRYK([γGlu-Palmitoyl])DSRSARDFVAWLEA-NH2), the 50% effective concentration (EC50) was determined as 89.6 nM on Human GIPr (read-out: hGIPR EC50), 0.00219 nM at Human GlucR [1] and 0.0212 nM on Human GLP1R.

In the case of `CCCCCCCCCCCCCCCC(=O)N[C@@H](CCC(=O)NCCCC[C@H](NC(=O)[C@H](CC(=O)O)NC(=O)[C@H](CO)NC(=O)[C@@H](NC(=O)[C@H](Cc1ccccc1)NC(=O)[C@@H](NC(=O)CNC(=O)[C@H](CCC(N)=O)NC(=O)[C@H](CO)NC(=O)[C@@H](N)Cc1c[nH]cn1)[C@@H](C)O)[C@@H](C)O)C(=O)N[C@@H](CO)C(=O)N[C@@H](CCC(=O)O)C(=O)N[C@@H](Cc1ccc(O)cc1)C(=O)N[C@@H](CC(C)C)C(=O)N[C@@H](CC(=O)O)C(=O)N[C@@H](CO)C(=O)N[C@@H](CCC(=O)O)C(=O)N[C@@H](CCCNC(=N)N)C(=O)N[C@@H](C)C(=O)N[C@@H](CCCNC(=N)N)C(=O)N[C@@H](CC(=O)O)C(=O)N[C@@H](Cc1ccccc1)C(=O)N[C@H](C(=O)N[C@@H](C)C(=O)N[C@@H](Cc1c[nH]c2ccccc12)C(=O)N[C@@H](CC(C)C)C(=O)N[C@@H](CCC(=O)O)C(=O)N[C@@H](C)C(=O)NCC(=O)NCC(=O)O)C(C)C)C(=O)O` [Peptide G933], the “BW day 14 (% change of vehicle mean)” value in the data set with DIO mice (5 nmol/kg s.c. twice daily for 14 days) was −11%. For the same compound, in the data set with DIO mice (5 nmol/kg s.c. twice daily), the HOMA is 3.31, the “Hepatic TG (g TG/100g tissue)” value is 11.3 g TG/100g tissue, the “Plasma NEFA” value amounted to 0.28 mM and the “Plasma TG” value was found to be 0.19 mM. In the data set with DIO mice (5 nmol/kg s.c. twice daily), this compound came in with a Glucose of 6.2 mM and an Insulin of 0.53 nM. Further, the “BW day 14 (% change of vehicle mean)” value in the data set on DIO mice (10 nmol/kg s.c. twice daily for 14 days) is listed as −19%. Moreover, in the data set with DIO mice (10 nmol/kg s.c. twice daily), the HOMA stood at 1.98, the “Hepatic TG (g TG/100g tissue)” value was determined as 14.7 g TG/100g tissue, the “Plasma NEFA” value amounted to 0.27 mM and the “Plasma TG” value is given as 0.16 mM. Also, in the data set on DIO mice (10 nmol/kg s.c. twice daily), the Glucose is recorded as 7.2 mM and the Insulin turned out to be 0.27 nM. The “effect on body weight over the 14 day dosing period” value with DIO mice (study B, FIGS. 5-8) was “dose dependent and continuous weight loss”. Moreover, in [2], the “% DPP cleaved product/+1 DPP cleaved product” value was under 1%. Besides, at human serum albumin, the “free peptide at 4.4% HSA” value is recorded as 0.29%. For the same compound, the solubility (usually the dissolved amount per volume that the medium holds) in “physchem” (pH 7) was at least 10000 µg/mL. Further, the solubility in the data set “physchem” (pH 7.2) is at least 5000 µg/mL.

`CCCCCCCCCCCCCCCC(=O)N[C@@H](CCC(=O)NCCCC[C@H](NC(=O)[C@H](CO)NC(=O)[C@H](CC(=O)O)NC(=O)[C@H](CC(C)C)NC(=O)[C@H](Cc1ccc(O)cc1)NC(=O)[C@H](CCCCN)NC(=O)[C@H](CO)NC(=O)[C@H](Cc1ccc(O)cc1)NC(=O)[C@H](CC(=O)O)NC(=O)[C@H](CO)NC(=O)[C@@H](NC(=O)[C@H](Cc1ccccc1)NC(=O)[C@@H](NC(=O)CNC(=O)[C@H](CCC(N)=O)NC(=O)CNC(=O)[C@@H](N)Cc1c[nH]cn1)[C@@H](C)O)[C@@H](C)O)C(=O)N[C@@H](CCCNC(=N)N)C(=O)N[C@@H](C)C(=O)N[C@@H](CCC(N)=O)C(=O)N[C@@H](CC(=O)O)C(=O)N[C@@H](Cc1ccccc1)C(=O)N[C@H](C(=O)N[C@@H](CCC(N)=O)C(=O)N[C@@H](Cc1c[nH]c2ccccc12)C(=O)N[C@@H](CC(C)C)C(=O)N[C@H](C(=O)N[C@@H](C)C(=O)NCC(=O)NCC(N)=O)C(C)C)C(C)C)C(=O)O` [Peptide G380]: on Mouse GlucR, the “Mouse GlucR/GLP1R Ratio” value was 0.006. Further, the “Human GlucR/GLP1R Ratio” value at Human GlucR [3] is given as 0.013.

The values are drawn from patent US20220098265A1 (MEDIMMUNE LIMITED, priority 2012, published 2022).
